Publication PMC12029309, “Synthesis and Antifungal Activity of 1,2,4-Oxadiazole Derivatives” (Molecules, 2025)
In brackets after ≈: the same amount, converted by molar mass. Read-outs that look alike come from different tables or passages of the source.

Experiments:
E. turcicum = experiment: Mycelial growth inhibition test in vitro (E. turcicum); format: cell-based; conditions: Exserohilum turcicum; for EC50: read-out: EC50 (μg/mL) E. turcicum; for inhibition at 50 µg/mL: 50 μg/mL, mean ± SD of three replicates, read-out: The Inhibition Rate (%) E. turcicum
C. capsica [1] = experiment: Antifungal activity in vivo: protective effect on detached pepper infected by C. capsica; design: species or system Colletotrichum capsica
Protocol: The protective effects of compounds 4q and 4f and carbendazim on pepper infected by […] studied. […] The peppers were washed with water and dried, and the surface was wiped with 75% ethanol for sterilization. The infected area was pricked with a diameter of 4 mm on the surface of the green pepper with a sterile inoculation needle. After spraying the antifungus compound solution on the surface and resting for 12 h, the activated cake (4 mm in diameter) was inoculated into the infected area. After culturing at 25 °C for 1 to 7 days, the plaque diameter was measured by the cross method, and the efficacy was calculated according to Formula (2).(2) Control efficacy%=A-B/A-C×100% • A: The average diameter of the blank medium colony. • B: The average diameter of the colonies in the medium containing compound. • C: Diameter of mushroom cake (3 mm/4 mm).

B. cinerea = experiment: Mycelial growth inhibition test in vitro (B. cinerea); format: cell-based; conditions: Botrytis cinerea; 50 μg/mL, mean ± SD of three replicates; read-out: The Inhibition Rate (%) B. cinerea
Protocol: (§1) The antifungal activity of the target compound was tested by the mycelial growth inhibition rate method. The compounds were detected at a concentration of 50 μg/mL, and carbendazim was used as the positive control. The antifungal activity was carried out according to literature reports. After drilling the mycelium (3 mm), it was inoculated into the PDA medium containing compounds, and the Petri dish was put into the incubator at 25 °C for 12-48 h; then, the colony diameter was measured with 50 index vernier caliper by the cross method, and the data were recorded. […] • A: The average diameter of the blank medium colony. • B: Diameter of mushroom cake (3 mm). • C: The average diameter of the colonies in the medium containing compound.

C. capsica [2] = experiment: Mycelial growth inhibition test in vitro (C. capsica); format: cell-based; conditions: Colletotrichum; for EC50: read-out: EC50 (μg/mL) C. capsica; for inhibition at 50 µg/mL: 50 μg/mL, mean ± SD of three replicates, read-out: The Inhibition Rate (%) C. capsica
Protocol: as §1, with “compound. […] The PDA medium containing different concentrations of the compound was prepared by the two-fold dilution method, the final concentration of the compound in the medium was adjusted to 0-100.00 μg/mL, and three parallel samples were set for each concentration. […] The toxicity regression equation of the tested compound was obtained, taking the logarithm of compound concentration (lgc) as the independent variable (x) and the probability value of inhibition rate as the dependent variable (y), and the EC50 value of each tested compound was calculated.” for “compound.”

F. graminearum = experiment: microbe, parasite or virus in culture; format: cell-based; conditions: Fusarium graminearum; for EC50: read-out: EC50 (μg/mL) F. graminearum; for inhibition at 50 µg/mL: read-out: The Inhibition Rate (%) F. graminearum
[3] = MTT cytotoxicity evaluation on MCF-7 cells; format: cell-based; conditions: human, range 0~100 μM
Protocol: (§2) Cells were incubated at 37 °C in an incubator with 5% CO2. Cell viability was determined using the MTT assay. Briefly, MCF-7 cell lines were seeded at 5000–8000 cells/well in 96-well plates. […] Following a continuous 24 h of incubation, the culture medium was replaced by 90 μL fresh culture medium, and 10 μL MTT solution was added.

R. solani = experiment: microbe, parasite or virus in culture; format: cell-based; conditions: Rhizoctonia solani; for EC50: read-out: EC50 (μg/mL) R. solani; for inhibition at 50 µg/mL: read-out: The Inhibition Rate (%) R. solani
MCF-7 cell line = experiment: MTT cytotoxicity evaluation on MCF-7 cells; format: cell-based; conditions: 100 μM, 24 h
Protocol: as §2

Compound | EC50 (E. turcicum) [µg/mL] | inhibition at 50 µg/mL (E. turcicum) [%] | Control efficacy (%) (C. capsica [1]; 500 μg/mL, 5 days) | Control efficacy (%) (C. capsica [1]; 1000 μg/mL, 5 days) | inhibition at 50 µg/mL (B. cinerea) [%] | EC50 (C. capsica [2]) [µg/mL] | inhibition at 50 µg/mL (C. capsica [2]) [%] | EC50 (F. graminearum) [µg/mL] | inhibition at 50 µg/mL (F. graminearum) [%] | IC50 at 24 h [3] [µM] | EC50 (R. solani) [µg/mL] | inhibition at 50 µg/mL (R. solani) [%] | EC50 (C. capsica [2]; mycelial growth, 0–100.00 μg/mL two-fold dilution) [µg/mL] | Control efficacy (%) (C. capsica [1]; 1000 μg/mL, 3 day) | cell survival rate of MCF-7 cells (MCF-7 cell line)
COc1ccc(-c2noc(-c3ccc(O)c(O)c3)n2)cc1OC [Compound 4q, 4-(3-(3,4-Dimethoxyphenyl)-1,2,4-oxadiazol-5-yl)benzene-1,2-diol] | 229 (≈ 729 µM) | 43.5 ± 0.99 | 50.12 | 76.83 | 32.8 ± 12.2 | 41.7 (≈ 133 µM) | 55.5 ± 1.34 | 149 (≈ 475 µM) | 43.5 ± 3.7 | ≥ 100 | 38.9 (≈ 124 µM) | 47.8 ± 8.13 |  |  | 
COC(=O)Nc1nc2ccccc2[nH]1 [carbendazim, reference compound] | 110 (≈ 573 µM) |  | 100 | 100 |  |  |  | 19.6 (≈ 102 µM) |  |  | 1.1 (≈ 5.75 µM) |  | 0.22 (≈ 1.15 µM) |  | 
Oc1ccc(-c2nc(-c3ccccc3)no2)cc1O [Compound 4f, 4-(3-Phenyl-1,2,4-oxadiazol-5-yl) benzene-1,2-diol] | 29.1 (≈ 115 µM) | 85.7 ± 1.97 | 100 |  | 38.9 ± 5.35 | 8.81 (≈ 34.7 µM) | 86.8 ± 3.11 | 30 (≈ 118 µM) | 100 |  | 12.7 (≈ 49.9 µM) | 80.9 ± 2.4 |  | 100 | 
COc1ccc(-c2noc(/C=C/c3ccccc3)n2)cc1OC [Compound 5e, (E)-3-(3,4-Dimethoxyphenyl)-5-styryl-1,2,4-oxadiazole] |  | 29.4 ± 2.05 |  |  | 30.6 ± 1.43 |  | < 10 |  | 28.7 ± 5.14 |  |  | 23.9 ± 0.59 |  |  | significant cell proliferation
